# Assay results reported in patent US8030442B2, “Treatment of injury to the brain by inhibition of acid sensing ion channels” (priority 2004, dated 2011).
# “Also recorded” adds a separate entry of the source.
# Tests used:
# [1] = test system: COS-7 cells stably transfected with ASIC1a; assay: Acid-induced LDH release in ASIC1a-transfected COS-7 cells; format: cell-based; settings: 100 μM, 1 hr pH 6.0, 24 hr
# Description: COS-7 cells, a cell line commonly used for expression of ASICs due to its lack of endogenous channels (Chen et al. 1998; Immke and McCleskey 2001 and Escoubas et al. 2000), were cultured in MEM with 10% HS and 1% PenStrep (GIBCO). At ˜50% confluence, cells were cotransfected with cDNAs for ASICs and GFP in pcDNA3 vector using FuGENE6 transfection reagents (Roche Molecular Biochemicals). DNA for ASICs (0.75 μg) and 0.25 μg of DNA for GFP were used for each 35 mm dish. GFP-positive cells were selected for patch-clamp recording 48 hr after transfection. For stable transfection of ASIC1a, 500 μg/mL G418 was added to culture medium 1 week following the transfection. The surviving G418-resistant cells were further plated and passed for >5 passages in the presence of G418. Cells were then checked with patch-clamp and immunofluorescent staining for the expression of ASIC1a.
# To provide additional evidence that activation of ASIC1a is involved in acid injury, acid injury of nontransfected and ASIC1a transfected COS-7 cells as described above was studied. Following confluence (36-48 hr after plating), cells were treated with either pH 7.4 or 6.0 ECF for 1 hr.
# LDH release was measured 24 hr after acid incubation. […] Background absorbance at 620 was subtracted.
# [2] = test system: cortical neurons cultured from ASIC+/+ and ASIC1-/- mice; assay: LDH release in neurons cultured from ASIC+/+ and ASIC1-/- mice; format: cell-based, mouse
# Description: Following anesthesia with halothane, cerebral cortices were dissected from PI ASIC1^+/+ and ASIC1^−/− mice and incubated with 0.05% trypsin-EDTA for 10 min at 37° C. Tissues were then triturated with fire-polished glass pipettes and plated on poly-L-ornithine-coated 24-well plates or 25×25 mm glass coverslips at a density of 2.5×10^5 cells per well or 10^6 cells per coverslip. Neurons were cultured with MEM supplemented with 10% horse serum (for E16 cultures) or Neurobasal medium supplemented with B27 (for P1 cultures) and used for electrophysiology and toxicity studies after 12 days. Glial growth was suppressed by addition of 5-fluoro-2-deoxyuridine and uridine, yielding cultured cells with ˜90% neurons as determined by NeuN and GFAP staining (data not shown).
# Cells were treated with either pH 7.4 or 6.0 ECF for 1 hr. LDH release was measured 24 hr after acid incubation. […] Background absorbance at 620 was subtracted.
# [3] = target: T1, ASICs in cortical neurons (Mus musculus, UniProt Q6NXK8); assay: Ca2+-mediated acid-activated current in cortical neurons (10 mM Ca2+ as only charge carrier); format: cell-based; settings: pH 6.0, -60 mV, n=6, read-out: peak amplitude of Ca2+-mediated current, % of control
# T1 construct: indicating significant Ca^2+ permeability of ASICs in the majority of cortical neurons; endogenous in cells; host or cells: primary cultured mouse cortical neurons
# T1 sequence (Q6NXK8 1-526): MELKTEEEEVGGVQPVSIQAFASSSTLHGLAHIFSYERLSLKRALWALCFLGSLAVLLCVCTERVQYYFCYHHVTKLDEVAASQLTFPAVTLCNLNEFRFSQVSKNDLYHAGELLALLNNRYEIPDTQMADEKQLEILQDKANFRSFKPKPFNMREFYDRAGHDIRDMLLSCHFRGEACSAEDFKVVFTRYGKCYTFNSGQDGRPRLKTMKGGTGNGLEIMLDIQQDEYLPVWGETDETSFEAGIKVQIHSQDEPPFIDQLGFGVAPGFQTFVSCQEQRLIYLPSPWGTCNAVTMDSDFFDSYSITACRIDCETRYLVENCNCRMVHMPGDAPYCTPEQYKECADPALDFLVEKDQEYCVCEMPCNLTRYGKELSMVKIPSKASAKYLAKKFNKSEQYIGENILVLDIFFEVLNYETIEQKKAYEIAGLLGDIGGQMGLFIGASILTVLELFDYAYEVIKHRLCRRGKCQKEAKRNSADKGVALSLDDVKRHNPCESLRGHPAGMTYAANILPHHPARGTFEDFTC
# [4] = test system: rat model of transient focal ischemia; format: in vivo; settings: n=11
# hippocampal slice = assay: Seizure-like activity in hippocampal slices in magnesium-free aCSF; settings: 100 μM for thirty minutes
# Description: Hippocampal slices were bathed in magnesium-free artificial cerebrospinal fluid (aCSF). The absence of magnesium in the fluid makes neurons in the slice susceptible to seizure-like electrical activity. Accordingly, the hippocampal slice maintained in magnesium-free fluid provides a model system for epilepsy. Electrical potential was measured prior to addition of any compounds, after treatment with PcTX venom followed by electrical stimulation, after PcTX venom was removed, with amiloride, during transient removal of kyneuric acid, and kainic acid to promote seizure activity in the mice with or without injection of PcTX venom.
# The three graphs in panel 23A show the electrical potential measured from the same hippocampal slice after electrical stimulation near the beginning of each voltage trace, to promote depolarization followed by re-polarization (a peak(s) in the voltage trace). Electrical stimulation of a control hippocampal slice, bathed in fluid with a physiological magnesium level, produced a single peak in the voltage trace (not shown here). In contrast, as shown here in the first graph of panel 23A, electrical stimulation of a hippocampal slice maintained in aCSF without magnesium produced a series of individual peaks, indicative of seizure-like activity.
# TRPM7 channels = TRPM7 channels (Homo sapiens, UniProt Q96QT4); assay: TRPM7 conductance, current-voltage relationship; format: cell-based; settings: 100 μM or 500 μM, ~10 min
# Sequence of TRPM7 channels (Q96QT4 whole entry, the tested form may be a part): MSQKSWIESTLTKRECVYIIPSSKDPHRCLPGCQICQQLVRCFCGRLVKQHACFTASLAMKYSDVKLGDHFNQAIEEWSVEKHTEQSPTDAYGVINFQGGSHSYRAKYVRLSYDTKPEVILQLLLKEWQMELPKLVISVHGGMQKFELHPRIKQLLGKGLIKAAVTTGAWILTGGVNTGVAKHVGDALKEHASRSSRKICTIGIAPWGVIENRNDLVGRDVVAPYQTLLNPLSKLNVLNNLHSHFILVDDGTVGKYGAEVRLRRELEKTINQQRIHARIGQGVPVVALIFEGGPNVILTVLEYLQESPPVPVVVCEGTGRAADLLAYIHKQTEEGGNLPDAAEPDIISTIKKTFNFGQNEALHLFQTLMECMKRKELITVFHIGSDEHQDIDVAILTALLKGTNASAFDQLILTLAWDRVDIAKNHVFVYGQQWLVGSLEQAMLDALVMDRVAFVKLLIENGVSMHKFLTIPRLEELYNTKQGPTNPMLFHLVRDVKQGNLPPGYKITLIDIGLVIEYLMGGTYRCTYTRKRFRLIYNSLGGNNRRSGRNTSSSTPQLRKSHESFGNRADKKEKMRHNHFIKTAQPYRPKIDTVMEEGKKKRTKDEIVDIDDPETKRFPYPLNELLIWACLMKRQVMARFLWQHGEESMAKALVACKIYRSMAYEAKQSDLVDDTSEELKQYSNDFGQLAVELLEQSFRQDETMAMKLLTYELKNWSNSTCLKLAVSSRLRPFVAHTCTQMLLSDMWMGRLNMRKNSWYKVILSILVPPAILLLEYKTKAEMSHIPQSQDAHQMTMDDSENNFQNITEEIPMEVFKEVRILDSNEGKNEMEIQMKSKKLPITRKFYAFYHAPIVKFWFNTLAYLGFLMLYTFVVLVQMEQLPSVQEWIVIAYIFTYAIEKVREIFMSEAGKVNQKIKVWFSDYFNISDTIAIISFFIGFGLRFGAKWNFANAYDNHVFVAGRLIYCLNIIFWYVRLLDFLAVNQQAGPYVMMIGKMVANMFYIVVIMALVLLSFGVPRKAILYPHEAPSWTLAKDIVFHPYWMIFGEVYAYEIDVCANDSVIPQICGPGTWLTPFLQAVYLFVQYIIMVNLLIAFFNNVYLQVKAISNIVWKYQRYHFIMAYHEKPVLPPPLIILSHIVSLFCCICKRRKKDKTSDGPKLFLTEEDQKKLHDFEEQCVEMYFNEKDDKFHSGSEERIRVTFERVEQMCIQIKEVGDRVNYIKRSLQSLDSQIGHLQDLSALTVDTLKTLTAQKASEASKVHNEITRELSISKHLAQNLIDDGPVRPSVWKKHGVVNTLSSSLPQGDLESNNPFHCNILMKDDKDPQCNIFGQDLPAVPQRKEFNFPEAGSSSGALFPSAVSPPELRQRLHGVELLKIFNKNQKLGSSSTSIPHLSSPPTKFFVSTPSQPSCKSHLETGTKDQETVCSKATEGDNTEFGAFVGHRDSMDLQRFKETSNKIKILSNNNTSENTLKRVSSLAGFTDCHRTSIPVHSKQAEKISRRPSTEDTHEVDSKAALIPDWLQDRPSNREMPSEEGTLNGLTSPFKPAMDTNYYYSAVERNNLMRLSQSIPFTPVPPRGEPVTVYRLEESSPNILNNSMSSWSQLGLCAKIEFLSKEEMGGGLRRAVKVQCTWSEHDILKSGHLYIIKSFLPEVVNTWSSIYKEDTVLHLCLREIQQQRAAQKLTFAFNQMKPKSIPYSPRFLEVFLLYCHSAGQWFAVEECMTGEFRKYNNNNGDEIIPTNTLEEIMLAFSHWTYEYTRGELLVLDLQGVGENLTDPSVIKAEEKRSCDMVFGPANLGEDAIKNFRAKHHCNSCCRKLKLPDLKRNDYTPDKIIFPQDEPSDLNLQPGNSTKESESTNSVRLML
# Description: In FIG. 36, after a stable current-voltage relationship (I-V curve) was recorded, amiloride at either 100 μM or 500 μM was perfused to the cell for ˜10 min. The I-V curve in the presence of amilolide was then generated (FIG. 36 A). Similarly in FIG. 36B, after a stable I-V curve was recorded, PcTX venom at 300 ng/ml was perfused to the cell for ˜10 min. The I-V curve in the presence of PcTX venom was then generated.
# [5] = test system: cultured hippocampal neurons; assay: Seizure-like electrical activity of cultured hippocampal neurons on kyneuric acid removal; format: cell-based; settings: during kyneuric acid removal
# Description: The neurons were grown in the presence of kyneuric acid. Removal of the kyneuric acid promoted spontaneous, sustained electrical activity by the neurons.
# The magnitude and periodicity of the peaks in the voltage traces changed upon exposure to amiloride.
# cortical neurons [6] = assay: Acid-induced LDH release in cortical neurons
# cortical neurons [7] = format: cell-based, mouse; settings: with MK801, CNQX, nimodipine, ω-conotoxin MVIIC; n=6-8
smiles,measurement,setting,value
N=C(N)NC(=O)c1nc(Cl)c(N)nc1N [amiloride],acid-induced LDH release,[1],inhibited acid-induced LDH release
same,acid-induced LDH release in ASIC+/+ neurons,"[2]; 1 hr pH 6.0, n=8-12",reduced
same,effect on acid-induced LDH release in ASIC1-/- neurons,"[2]; knockout of the ASIC1 gene, n=8",eliminated the effect
same,remaining activity at 100 µM,[3],26%
same,infarct volume,[4],229.7±41.1 mm^3
same,peaks in voltage trace after electrical stimulation,hippocampal slice,reduced both the number and amplitude of peaks
same,conductance of TRPM7 channels,TRPM7 channels,had no effect; also recorded: lack of blockade
same,seizure-like electrical activity of neurons,[5],blocked the seizure-like electrical activity
same,"LDH release at 24 hr, % of maximal","cortical neurons [6]; 100 μM, 10 min before and during 1 hr pH 6.0, without blocker 45.3%±3.8%",31.1%±2.5%
same,LDH release on prolonged incubation,"cortical neurons [6]; alone, e.g. 5 hr, n=8",increased LDH release
same,baseline LDH release,cortical neurons [6]; pH 7.4 ECF for 1 hr,did not affect baseline LDH release
same,peak and sustained acid-induced increases in [Ca2+]i,cortical neurons [7],largely inhibited
